Experimental data taken from patent US20090274687A1, “ATTENUATION OF HYPOXIA INDUCED CARDIOVASCULAR DISORDERS” (University Of Miami, priority 2008, published 2009).
“Also recorded” adds a separate entry of the source.

Columns and labels:
[1] = tested on: FVB/NJ neonatal mice exposed to normobaric hypoxia (hypoxia-induced pulmonary hypertension); assay: Prevention: neonatal mice exposed to 1 wk hypoxia, daily intraperitoneal treatment postnatal day 1-7; assay type: in vivo
Description: Animal Care and Treatment: Sixty Eight FVB/NJ neonatal mice exposed to normobaric hypoxia (10% O2) or normoxia (20.9% O2) for one week were randomly assigned to receive daily intraperitoneal injections of normal saline (PL; n=19), or AMD3100 (7.5 mg/kg; n=10) or anti-SDF-1 antibody ([…]; n=19) for seven days, from postnatal day 1-7.

CXCR4 receptor = details: cited from earlier work

c1cc(CN2CCCNCCNCCCNCC2)ccc1CN1CCCNCCNCCCNCC1 [AMD3100, 1,1′-[1,4-phenylenebis(methylene)]bis-1,4,8,11-tetraazacyclotetradecane]
vascular remodeling (medial wall thickness), morphometric analysis of pulmonary arterioles ([1]; 1 wk hypoxia, 20-50 μm diameter arterioles, vs Hyp PL, FIG. 5D): marked decrease; also recorded: markedly attenuated
RV c-kit expression ([1]; 1 wk hypoxia, right ventricle, vs Hyp PL, FIG. 4C): significantly decreased
RV Sca-1 expression ([1]; 1 wk hypoxia, right ventricle, vs Hyp PL, FIG. 4D): significantly decreased
RV Isl-1 expression ([1]; 1 wk hypoxia, right ventricle, vs Hyp PL, FIG. 4E): significantly decreased
protein expression of stem cell markers (c-kit, Sca-1) in lungs and right ventricles ([1]; 1 wk hypoxia, to baseline or near baseline values, FIGS. 4A-4E): significantly decreased
lung c-kit expression ([1]; 1 wk hypoxia, vs Hyp PL, to near baseline values, FIG. 4A): significantly decreased
lung Sca-1 expression ([1]; 1 wk hypoxia, vs Hyp PL, to near baseline values, FIG. 4B): significantly decreased
RVSP ([1]; 1 wk hypoxia, vs placebo, FIG. 5A): close to baseline values; also recorded: significantly attenuated
RV Hypertrophy (RV/LV+S) ([1]; 1 wk hypoxia, vs placebo, FIG. 5B): close to baseline values; also recorded: significantly attenuated
number of muscularized pulmonary arterioles (α-smooth muscle actin staining) ([1]; 1 wk hypoxia, vs placebo, FIG. 5C): decreased
percentage of non-muscularized pulmonary arterioles ([1]; 1 wk hypoxia, vs placebo, FIG. 5E): significantly increased
mean linear intercept (MLI), lung alveolarization ([1]; 1 wk hypoxia, vs placebo, FIG. 5F): significantly decreased
number of PCNA+ cells in the pulmonary vasculature (cell proliferation) ([1]; hypoxic mouse pups vs Hyp PL, FIGS. 6A-6B): significantly attenuated
number of TUNEL+ cells in the pulmonary vasculature (apoptosis) ([1]; hypoxic mouse pups vs Hyp PL, FIGS. 6D-6E): significantly attenuated
phosphorylated-Akt expression in lungs ([1]; treated mouse pups vs placebo, FIG. 6C): marked decrease
affinity relative to its affinity in CXCR4 (CXCR4 receptor; after introduction of Glu VII:06 and removal of Lys VII:02): ≤ 10 fold
increase in affinity of AMD3100 (CXCR4 receptor; introduction of a Glu at position VII:06 and removal of a neutralizing Lys residue at position VII:02): 1000 fold
